Assays:
[1] = system: GFAP mRNA; experiment: Gene expression of GFAP in retina, quantitative real-time PCR, streptozotocin-induced diabetic retinopathy; assay type: in vivo, Sprague-Dawley female rats
Description: After a 16-hour fasting, Sprague-Dawley female rats weighing 200-220 g received a single 60 mg/kg intraperitoneal injection of Streptozotocin (STZ; Sigma-Aldrich, St. Louis, Md.) in 10 mM sodium citrate buffer (pH 4.5; Sigma-Aldrich, St. Louis, Md.). Control rats were fasted and received the buffer solution alone. Rats with blood glucose levels higher than 375 mg/dL 7 days after receiving STZ were considered to be diabetic. Diabetic rats were treated with 1% COMPOUND I, 0.5% COMPOUND I or vehicle eye drops 3 time a day for 6 weeks.
After rat were sacrificed as described previously, the eyes were enucleated and bisected, and the retinas were peeled from the eyecups and immediately homogenized in RNA isolation agent (RNeasy®Plus Mini Kit, Qiagen, Valencia, Calif.). The first-strand cDNA was prepared from the mRNA by using the commercial kit in accordance with the manufacturer's protocol (High-capacity reverse transcription kits, AB life technologies, Austin, Tex.). Real-time PCR was performed in 96-well plates using standard protocols with a fluorescent detection dye (SYBRR Green PCR Master Mix, AB life technologies, Austin, Tex.) in a real-time detection system (iCycler. Bio-Rad). All PCR reactions were a final volume of 20 μl comprised of fluorescent dye/PCR mix, final concentration 0.2 μM forward and reverse primers, and 1 ng of cDNA. The PCR cycle parameters were as follows: polymerase activation for 15 minutes at 90° C., 40 cycles of 95° C. for 15 seconds, 60° C. for 30 seconds and 72° C. for 1 minute. The quantity of mRNA was calculated by normalizing the CT of the β-actin housekeeping gene in the same sample, according to the following formula: The average β-actin CT (each multiplex PCR was performed in triplicate) was subtracted from the average target gene CT; the results represented the ΔCT. This ΔCT is specific and can be compared with the ΔCT of a calibration sample. The subtraction of control ΔCT from the ΔCT of the target gene is referred ΔΔCT. The relative quantification of expression of a target gene (in comparison with control) was determined by using 2^−ΔΔCT.

[2] = system: HUVECs; experiment: H2O2-induced injury in HUVECs (MTT); assay type: cell-based, human; details: 10 μg/ml, 24 h
Description: (§1) MTT assay was used to measure the viability of ARPE-19 cells and HUVECs. 2×10^5 ARPE-19 cells or 5×10^4 HUVECs were seeded in 96-well plates ([…]) and allowed to grow overnight. Negative control was prepared by adding 100 μl medium without cells. The cells were then treated with fresh medium with COMPOUND I (0.03, 0.1, 0.3, 1, 3 and 10 μg/ml) and/or oxidants (NaIO3, H2O2, t-BHP and NaN3) for 12, 24, or 72 hours (200 μl/well). The vehicle control group was treated with vehicle. 20 μl MTT (5 mg/ml) was added to wells, and incubated for another 4 h. After incubation, the medium was discarded and 100 μl DMSO was added to solubilize formazan produced from MTT by the viable cells. Absorbance was measured at 570 nm using a microplate reader (Bio-Rad Laboratories, Inc., CA). Cells viability was calculated according to the following formula: Viability of cells (%)=(absorbance in tested sample−absorbance in negative control)/(absorbance in vehicle control−absorbance in negative control)×100%.

[3] = system: ARPE-19 cells; experiment: H2O2-induced injury in ARPE-19 cells (MTT); assay type: cell-based, human; details: 3 μg/ml and 10 μg/ml; 400, M and 600 μM H2O2; 24 h
Description: as §1

[4] = system: HUVECs; experiment: NaN3-induced injury in HUVECs (MTT); assay type: cell-based, human; details: 72 h
Description: as §1

[5] = system: ARPE-19 cells; experiment: MTT viability / proliferation of ARPE-19 cells; assay type: cell-based, human; details: 72 h
Description: ARPE-19 cells were grown in DMEM/F12 medium supplemented with 10% FBS, 100 units/ml penicillin G, and 100 μg/ml streptomycin sulfate. HUVECs were grown in vascular cell basal medium supplemented with endothelial cell growth kit. Cells were incubated in a humidified incubator at 37° C. under 5% CO2 and 95% air.
as §1

[6] = system: ARPE-19 cells; experiment: NaIO3-induced injury in ARPE-19 cells (MTT); assay type: cell-based, human; details: 10 μg/ml; 72 h
Description: as §1

COc1ccc(COc2c(/C=C/C(=O)NO)ccc(OC)c2CC=C(C)C)cc1 [COMPOUND I]
GFAP gene expression vs diabetic control group, in words ([1]; 0.5% and 1%): significantly down-regulated | mRNA expression of GFAP, DR animals as 100% ([1]; 0.5% eye drops tid 6 weeks): 60% | mRNA expression of GFAP, DR animals as 100% ([1]; 1% eye drops tid 6 weeks): 51% | enhancement of H2O2-induced injury ([2]; 200 μM H2O2): 41% | enhancement of H2O2-induced injury ([2]; 400 μM H2O2): 10% | effect on H2O2-induced injuries [3]: reversed | enhancement of NaN3-induced injury ([4]; 10 µg/ml, 3 mM NaN3): 72% | effect on NaN3-induced injury ([4]; From 0.03 μg/ml): didn't affect | enhancement of NaN3-induced injury ([4]; […], 0.3 mM NaN3): 65% | enhancement of NaN3-induced injury ([4]; […], 1 mM NaN3): 52% | effect on cell growth ([5]; 0.03 μg/ml to 1 μg/ml): did not affect cell growth | inhibition at 10 µg/mL ([5]; Homo sapiens, ARPE-19, 10 μg/ml): 36% | effect on viability in NaIO3-induced injury [6]: significantly enhanced the viability

From patent US11045435B2, “Methods for treating ocular diseases” (NATUREWISE BIOTECH & MEDICALS CORPORATION, priority 2016, dated 2021)
